# Measurements as given in patent US20210085676A1, “TREATMENT FOR AGE- AND OXIDATIVE STRESS-ASSOCIATED MUSCLE ATROPHY AND WEAKNESS” (Oklahoma Medical Research Foundation, priority 2018, published 2021).
# “Also recorded” adds a separate entry of the source.
# Tests used:
# Sod1−/− mice = test: Body mass and gastrocnemius muscle mass in Sod1−/− mouse model of accelerated sarcopenia; format: in vivo; details: 50 mg/kg i.p. 3 times per week, 7 weeks
# Experimental: Animals. The generation and characterization of the Sod1^−/− mice is described in detail elsewhere (3, 24). Female ≈2 months old C57BL/6J wild-type (WT; n=12-18) and Sod1^−/− mice (n=12-18) were divided into four groups and treated with either vehicle (10% DMSO, 10% Tween-80 in PBS) or CDN1163 (50 mg/kg) by intraperitoneal injection three times per week for 7 weeks. Care and management of the mice was executed according to The Guide for the Care and Use of Laboratory Animals and approved by the institutional Animal Care and Use Committee at the Oklahoma Medical Research Foundation (OKC, Okla., USA). CDN1163 prevents gastrocnemius muscle atrophy in the Sod1^−/− mice. […] At 2 months of age, neither absolute (FIG. 2B) nor normalized (FIG. 2C) gastrocnemius muscle mass is statistically lower in Sod1^−/− versus WT female mice. However, at the end of the 7 week period (˜4 months of age) there is a significant decrease in both absolute and normalized gastrocnemius muscle mass in the untreated Sod1^−/− mice compared to untreated WT mice (FIGS. 2B, 2C) consistent with the inventor's previous reports(3).
# old wildtype mice = test: Aging study in old wildtype mice (24-26 months), 8-10 months treatment; format: in vivo, mouse
# Text: The present inventors studied a group of old wildtype mice (24-26 months) with and without 8-10 months treatment with CDN1163. […] Further, the old mice show significant atrophy of the gastrocnemius muscles when compared to baseline group (≈10%, p<0.05). […] The inventors also measured the muscle force generating capacity in the mouse EDL muscles because of large body of literature showing reduced strength of extensor digitorum longus (EDL) muscle with aging. EDL muscle weakness in the old wild-type mice (≈11%, p<0.05) was consistent with previous studies, when compared to the baseline group. […] This effect was consistent at stimulation frequencies for maximal and sub-maximal (≈50% of maximal force) tetanic forces normalized for muscle mass. […] As such, CDN1163 was able to reduce muscle weakness, while not having side-effects related to muscle half relaxation time and time to maximal twitch force.
# [1] = system: isolated mitochondria from the gastrocnemius muscle; test: Mitochondrial H2O2 production (Amplex red-HRP) in isolated mitochondria from gastrocnemius muscle of treated mice; format: in vivo, mouse; details: Sod1−/− mice
# Experimental: (§1) Animals. The generation and characterization of the Sod1^−/− mice is described in detail elsewhere (3, 24). Female ≈2 months old C57BL/6J wild-type (WT; n=12-18) and Sod1^−/− mice (n=12-18) were divided into four groups and treated with either vehicle (10% DMSO, 10% Tween-80 in PBS) or CDN1163 (50 mg/kg) by intraperitoneal injection three times per week for 7 weeks. Care and management of the mice was executed according to The Guide for the Care and Use of Laboratory Animals and approved by the institutional Animal Care and Use Committee at the Oklahoma Medical Research Foundation (OKC, Okla., USA).
# Mitochondrial function. Mitochondrial isolation and assays for H2O2 generation were performed in gastrocnemius muscle as described previously by the inventor's laboratory (27). Freshly isolated mitochondria were used for H2O2 release assay using the Amplex red-HRP method. Isolated mitochondrial are exposed to respiratory substrates and HRP (1 U Ml-1) in the assay buffer catalyzes the H2O2-dependent oxidation of non-fluorescent Amplex Red (80 μM) (Molecular Probes, Eugene, Oreg., USA) to fluorescent resofurin red (excitation λ=544 nm, emission λ=590 nm at 37° C.). The slope of the increase in fluorescence was converted to the rate of H2O2 production with standard curve.
# CDN1163 attenuates mitochondrial dysfunction in the Sod1^−/− mice. It is well documented that elevated levels of cytosolic Ca^2+ lead to increased mitochondrial ROS production (16). The inventors have previously shown that the mitochondria from the Sod1^−/− mice show structural and functional defects (4, 5). To test whether the activation of SERCA pump function improves mitochondrial function, the inventors measured mitochondrial ROS production as H2O2 emission using isolated mitochondria from the gastrocnemius muscle. […] CDN1163 treatment in the Sod1^−/− mice returns glutamate/malate stimulated H2O2 generation to WT levels (FIG. 4A).
# [2] = system: F2-isoprostanes in quadriceps muscle; test: Oxidative damage by F2-isoprostane level in quadriceps muscle of treated mice; format: in vivo, mouse; details: Sod1−/− mice
# Experimental: as §1, with “USA). Analysis of oxidative damage by F2-isoprostane level. The levels of F2-isoprostanes in quadriceps muscle were measured using thin layer chromatography and GC-mass spectrometry as described previously (25). CDN1163 reduces the oxidative damage in the Sod1^−/− mice. The inventors have previously reported increased oxidative damage in the skeletal muscles of Sod1^−/− mice (6) that might be contributing to muscle atrophy and weakness. […] Therefore the inventors investigated whether CDN1163 can prevent oxidative stress-induced damage by measuring the levels of F2-isoprostanes, an indicator of lipid peroxidation, in the quadriceps muscles.” for “USA).”
# [3] = system: EDL muscle of Sod1−/− mice; test: Contractile measurements in isolated EDL muscle of treated Sod1−/− mice; format: in vivo, mouse
# Experimental: Animals. The generation and characterization of the Sod1^−/− mice is described in detail elsewhere (3, 24). Female ≈2 months old C57BL/6J wild-type (WT; n=12-18) and Sod1^−/− mice (n=12-18) were divided into four groups and treated with either vehicle (10% DMSO, 10% Tween-80 in PBS) or CDN1163 (50 mg/kg) by intraperitoneal injection three times per week for 7 weeks. Care and management of the mice was executed according to The Guide for the Care and Use of Laboratory Animals and approved by the institutional Animal Care and Use Committee at the Oklahoma Medical Research Foundation (OKC, Okla., USA). Contractile Measurements. Contractile force generation was measured in isolated extensor digitorum longus (EDL) muscle using a 1200A in vitro test system (Aurora Scientific Inc.) as described elsewhere (7). Briefly, muscles were individually tied to a model 300C servomotor (Aurora Scientific Inc.) and fixed within a water bath containing an oxygenated (95% O2, 5% CO2) Krebs-Ringer solution (in mM: 137 NaCl, 5 KCl, 1 MgSO4, 1 NaH2PO4, 24 NaHCO3, 2 CaCl2) maintained at 32 C. Computer controlled stimulation was applied through a model 701C stimulator (Aurora Scientific Inc.). Force frequency curves were generated with stimulation frequencies between 1 and 300 Hz, while the fatigue protocol consisted of repeated 150 Hz stimuli, every 5 s for 400 s. All data were recorded and analyzed using commercial software (DMC and DMA, Aurora Scientific). Specific force (N/cm^2) was measured using muscle length and mass. Example 3. CDN1163 prevents contractile dysfunction in the Sod1^−/− mice. In agreement with the inventor's previous findings, the inventors measured a significant decline in the in-vitro specific force measured in EDL muscle of Sod1^−/− mice (˜19%, p<0.05) when compared to WT mice (FIG. 3A). […] On the other hand, CDN1163 has no effect on the time to peak contraction (TTP) and half relaxation time (RT1/2) in the EDL muscle during twitch contractions (FIGS. 3B, 3C).
# SERCA = SERCA Ca2+-dependent ATPase activity in gastrocnemius muscle homogenates of treated mice; format: in vivo, mouse; details: Sod1−/− mice, 50 mg/kg i.p. 3 times per week, 7 weeks
# Experimental: as §1, with “USA). SERCA activity. The measurement of SERCA activity was performed in the muscle homogenates at 37° C. using a spectrophotometric assay as previously described (26). CDN1163 rescues the SERCA activity in the Sod1^−/− mice. Ca^2+-dependent Ca^2+-ATPase activity was measured in gastrocnemius muscle homogenates to determine the effects of CDN1163 on SERCA function. […] Levels of SERCA1 and SERCA2 mRNA and protein were not changed in Sod1^−/− mice and were not altered by CDN1163 treatment (FIGS. 1C, 1D).” for “USA).”
# ob/ob mouse model = details: reference 17; cited from earlier work
# [4] = old wildtype mice 24-26 months, versus 16 month old baseline
# [5] = 50 mg/kg i.p. 3 times per week, 7 weeks
# [6] = EDL muscle, twitch contractions, 7 weeks treatment
smiles,measurement,setting,value
"Cc1ccc2cccc(NC(=O)c3ccc(OC(C)C)cc3)c2n1 [CDN1163, 4-(1-Methylethoxy)-N-(2-methyl-8-quinolinyl)-benzamide]",Increase in (normalized) gastrocnemius muscle mass versus untreated Sod1−/− mice,Sod1−/− mice; Sod1−/− mice,23%
same,Gastrocnemius muscle mass / atrophy,"Sod1−/− mice; Sod1−/− mice, 50 mg/kg",restores; also recorded: completely prevented this atrophy
same,Body weight (body mass),"Sod1−/− mice; WT or Sod1−/− mice, 50 mg/kg",did not alter
same,Muscle half relaxation time,old wildtype mice; old wildtype mice,no significant effects
same,Time to maximal twitch force,old wildtype mice; old wildtype mice,no significant effects
same,Age-related atrophy of the gastrocnemius muscles,old wildtype mice; [4],completely prevented
same,Age-related reduction in body weight,old wildtype mice; [4],did not prevent
same,Age-related decline in EDL muscle force,"old wildtype mice; old wildtype mice, maximal and sub-maximal tetanic forces normalized for muscle mass",prevented this decline in force
same,Mitochondrial ROS generation,[1]; [5],reversed
same,"Mitochondrial H2O2 production, glutamate/malate stimulated (state-2, complex 1-linked)",[1]; 7 weeks treatment,reduces; also recorded: to WT levels
same,"Mitochondrial H2O2 production, State-1 respiration","[1]; without external substrate, 7 weeks treatment",reduces; also recorded: do not show elevated levels
same,Reduction of oxidative damage in muscle tissue measured as F2-isoprostanes,[2]; [5],50%
same,F2-isoprostanes levels (lipid peroxidation),"[2]; quadriceps muscle, 7 weeks treatment",reduces; also recorded: prevented this increase
same,Half relaxation time (RT1/2),[3]; [6],without affecting; also recorded: no effect
same,Time to twitch peak tension / time to peak contraction (TTP),[3]; [6],without affecting; also recorded: no effect
same,Specific force of EDL muscle,"[3]; Sod1−/− mice, 50 mg/kg i.p. 3 times per week, 7 weeks, measured in vitro, 50 mg/kg",completely restored
same,Maximum Ca2+ dependent SERCA (SR Ca2+-ATPase) activity,SERCA,completely restored
same,Plasma levels of malondialdehyde (marker of oxidative stress),ob/ob mouse model,reduce
